Test results: publication PMC12115217, “3,3′-((3-Hydroxyphenyl)azanediyl)dipropionic Acid Derivatives as a Promising Scaffold Against Drug-Resistant Pathogens and Chemotherapy-Resistant Cancer” (Pathogens, 2025)
Converted amounts (≈) assume the structure as drawn. Like-named read-outs stand apart in the source and are kept apart here.

What was measured:
E. faecalis AR-0671 = test: Broth microdilution MIC, E. faecalis AR-0671; format: cell-based, Enterococcus faecalis; details: for MIC: Enterococcus faecalis
Text: (§1) The multidrug-resistant S. aureus strain TCH 1516 [USA 300-HOU-MR] was obtained from the American Type Culture Collection (ATCC, Manassas, VA, USA) (Table 1). E. faecalis AR-0671, multidrug-resistant E. coli AR-0001, K. pneumoniae AR-0003, P. aeruginosa AR-1114, and A. baumannii AR-0273 strains were acquired from the Centers for Disease Control and Prevention (CDC) AR isolate bank (Table 1). Prior to the initiation of this study, all microbial strains were stored in commercial cryopreservation systems at a temperature of −80 °C. The strains were cultivated on Columbia sheep blood agar (Becton Dickinson, Franklin Lakes, NJ, USA) or potato dextrose agar (PDA) for Candida (Becton Dickinson, Franklin Lakes, NJ, USA).
(§2) The antimicrobial activity of 3-((3-hydroxyphenyl)amino)propanoic acid derivatives was assessed by using the broth microdilution method, following the guidelines outlined by the Clinical Laboratory Standards Institute (CLSI), with modifications. In brief, the compounds were dissolved in dimethyl sulfoxide (DMSO) to attain a final concentration of 25–30 mg/mL. Vancomycin hydrochloride (MedChem express, Cat. No. HY-17362), cefazolin (MedChem express, Cat. No. HY-B1892), and meropenem (MedChem express, Cat. No. HY-13678) were used as control antimicrobial drugs and were dissolved in DMSO as described before. Dilution series were prepared in deep 96-well microplates to achieve a two-fold concentration range of 0.25, 0.5, 1, 2, 4, 8, 16, 32, and 64 µg/mL, utilizing cation-adjusted Mueller–Hinton broth (CAMHB) as the growth medium. The microplates containing the dilution series were then inoculated with fresh cultures of each tested organism to reach a final concentration of 5 × 10^4 CFU (colony-forming units) of the test organism in media containing 1% DMSO and 1× drug concentration, with a volume of 200 µL per well. Wells that were inoculated with medium containing 1% DMSO served as positive controls. Subsequently, the microplates were incubated at 35 ± 1 °C for 18 ± 2 h. Following the incubation period, the plates were examined by using a manual microplate viewer (Sensititre Manual Viewbox, ThermoFisher Scientific, Waltham, MA, USA). […] All experiments were conducted in duplicate with three technical replicates for each condition.

E. coli AR-0001 [1] = test: Broth microdilution MIC, E. coli AR-0001; format: cell-based, Escherichia coli; details: for minimal inhibitory concentration (MIC) E. coli AR-0001: multidrug-resistant, KPC-3, CAMHB; for MIC: Escherichia coli, AR0001, read-out: minimal inhibitory concentration (MIC) E. coli AR-0001
Text: as §1, §2

K. pneumoniae AR-0003 [2] = test: Broth microdilution MIC, K. pneumoniae AR-0003; format: cell-based, Klebsiella pneumoniae; details: for minimal inhibitory concentration (MIC) K. pneumoniae AR-0003: KPC-3, CAMHB; for MIC: Klebsiella pneumoniae, AR0003, read-out: minimal inhibitory concentration (MIC) K. pneumoniae AR-0003
Text: as §1, §2

P. aeruginosa AR-1114 [3] = test: Broth microdilution MIC, P. aeruginosa AR-1114; format: cell-based, Pseudomonas aeruginosa; details: for minimal inhibitory concentration (MIC) P. aeruginosa AR-1114: IMP-15, CAMHB; for MIC: Pseudomonas aeruginosa, AR1114, read-out: minimal inhibitory concentration (MIC) P. aeruginosa AR-1114
Text: as §1, §2

A. baumannii AR-0273 = test: Broth microdilution MIC, A. baumannii AR-0273; format: cell-based, Acinetobacter baumannii; details: for MIC: Acinetobacter baumannii
Text: as §1, §2

FaDu cells = test: MTT cell viability at fixed 100 µM, FaDu cells; format: cell-based; details: 24 h, described in words (Figure 2)
Method: Test compounds 2–25 were dissolved in hybridoma-grade dimethyl sulfoxide (Millipore, Sigma, Burlington, MA, USA) to prepare stock solutions at concentrations of 10–25 mg/mL. […] For in vitro anticancer activity screening, the compounds were thawed at room temperature, protected from light, and the aliquots were diluted in complete cell culture media to achieve a final concentration of 100 µM and used for the in vitro assays. The cytotoxicity assays were performed in triplicate.
FaDu cells were obtained from the American Type Culture Collection (Rockville, MD, USA). HEK293 cells were kindly provided by Dr. Iliev lab at the Jill Roberts Institute for Inflammatory Bowel Disease, Weill Cornel Medicine of Cornel University (New York, NY, USA). All cells were cultivated in Dulbecco’s Modified Eagle Medium/Nutrient Mixture F-12 (DMEM/F-12) (Gibco, Waltham, MA, USA), 10% fetal bovine serum (FBS) (Gibco, Waltham, MA, USA), 100 U/mL penicillin, and 100 μg/mL streptomycin (P/S) (Gibco, Waltham, MA, USA). Culturing conditions were maintained at 37 °C in a humidified atmosphere containing 5% CO2. The culture medium was refreshed every 2–3 days, and cells were passaged upon reaching 70–80% confluence.
The in vitro inhibitory effects of the compounds were assessed by using the MTT assay. Briefly, cells were plated in 96-well plates at a density of 1 × 10⁴ cells per well. After the cells were allowed to adhere overnight at 37 °C in 5% CO₂, they were treated with compounds at a concentration of 100 µM in triplicate. Following a 20 h incubation, the MTT reagent was added, and the cells were further incubated for 4 h. The resulting formazan was solubilized in anhydrous DMSO, and absorbance was measured at 570 nm by using a microplate reader. Cell viability was calculated by using the following formula: ([AE − AB]/[AC − AB]) × 100%, where AE, AC, and AB represent the absorbance values of experimental samples, untreated controls, and blank wells, respectively. Data analysis was performed by using GraphPad Prism or QuickCalcs.

S. aureus TCH 1516 [4] = test: Broth microdilution MIC, S. aureus TCH 1516; format: cell-based; details: Staphylococcus aureus
E. coli AR-0001 [5] = test: Broth microdilution MIC, E. coli AR-0001; format: cell-based; details: Escherichia coli, AR0001; multidrug-resistant, KPC-3; CAMHB, 18 ± 2 h; read-out: minimal inhibitory concentration (MIC) E. coli AR-0001
K. pneumoniae AR-0003 [6] = test: Broth microdilution MIC, K. pneumoniae AR-0003; format: cell-based; details: Klebsiella pneumoniae, AR0003; KPC-3; CAMHB, 18 ± 2 h; read-out: minimal inhibitory concentration (MIC) K. pneumoniae AR-0003
P. aeruginosa AR-1114 [7] = test: Broth microdilution MIC, P. aeruginosa AR-1114; format: cell-based; details: Pseudomonas aeruginosa, AR1114; IMP-15; CAMHB, 18 ± 2 h; read-out: minimal inhibitory concentration (MIC) P. aeruginosa AR-1114
S. aureus TCH 1516 [8] = test: Broth microdilution MIC, S. aureus TCH 1516; format: cell-based, Staphylococcus aureus; details: mecA MRSA isolate, USA300 lineage; CAMHB, 18 ± 2 h
Text: as §1, §2

[9] = AR0671, CAMHB, 18 ± 2 h, read-out: minimal inhibitory concentration (MIC) E. faecalis AR-0671
[10] = AR0273, OXA-23, CAMHB, 18 ± 2 h, read-out: minimal inhibitory concentration (MIC) A. baumannii AR-0273
[11] = MRSA / USA300, mecA MRSA isolate, USA300 lineage, CAMHB, 18 ±, read-out: minimal inhibitory concentration (MIC) S. aureus TCH 1516
[12] = AR0671, read-out: minimal inhibitory concentration (MIC) E. faecalis AR-0671
[13] = AR0273, read-out: minimal inhibitory concentration (MIC) A. baumannii AR-0273
[14] = MRSA / USA300, read-out: minimal inhibitory concentration (MIC) S. aureus TCH 1516

| Structure (SMILES) | minimal inhibitory concentration (MIC) E. faecalis AR-0671 (E. faecalis AR-0671; CAMHB) [mg/L] | MIC (E. faecalis AR-0671; [9]) [mg/L] | minimal inhibitory concentration (MIC) E. coli AR-0001 (E. coli AR-0001 [1]) [mg/L] | minimal inhibitory concentration (MIC) K. pneumoniae AR-0003 (K. pneumoniae AR-0003 [2]) [mg/L] | minimal inhibitory concentration (MIC) P. aeruginosa AR-1114 (P. aeruginosa AR-1114 [3]) [mg/L] | MIC (A. baumannii AR-0273; [10]) [mg/L] | minimal inhibitory concentration (MIC) A. baumannii AR-0273 (A. baumannii AR-0273; OXA-23, CAMHB) [mg/L] | post-treatment viability (MTT assay) (FaDu cells) | MIC (S. aureus TCH 1516 [4]; [11]) [mg/L] | MIC (E. coli AR-0001 [5]) [mg/L] | MIC (K. pneumoniae AR-0003 [6]) [mg/L] | MIC (P. aeruginosa AR-1114 [7]) [mg/L] | minimal inhibitory concentration (MIC) S. aureus TCH 1516 (S. aureus TCH 1516 [8]) [mg/L] | MIC (E. faecalis AR-0671; [12]) [mg/L] | MIC (E. coli AR-0001 [1]) [mg/L] | MIC (K. pneumoniae AR-0003 [2]) [mg/L] | MIC (P. aeruginosa AR-1114 [3]) [mg/L] | MIC (A. baumannii AR-0273; [13]) [mg/L] | MIC (S. aureus TCH 1516 [4]; [14]) [mg/L] |
| --- | --- | --- | --- | --- | --- | --- | --- | --- | --- | --- | --- | --- | --- | --- | --- | --- | --- | --- | --- |
| NNC(=O)CCN(CCC(=O)NN)c1cccc(O)c1 [Compound 4, 3,3′-((3-Hydroxyphenyl)azanediyl)di(propanehydrazide)] | >64 | > 64 | >64 | >64 | >64 | > 64 | >64 | moderate decrease in viability | 8 (≈ 28.4 µM) | > 64 | > 64 | > 64 |  |  |  |  |  |  |  |
| O=C(O)CCN1CCC(=O)c2ccc(O)cc21 [Compound 7, 3-(7-Hydroxy-4-oxo-3,4-dihydroquinolin-1(2H)-yl)propanoic Acid] | >64 | > 64 | >64 | >64 | >64 | > 64 | >64 |  | > 64 | > 64 | > 64 | > 64 | >64 |  |  |  |  |  |  |
| O=C(CCN(CCC(=O)NN=Cc1ccccc1)c1cccc(O)c1)NN=Cc1ccccc1 [Compound 8, 3,3′-((3-Hydroxyphenyl)azanediyl)bis(N′-(benzylidene)propanehydrazide)] | >64 | > 64 | >64 | >64 | >64 | > 64 | >64 |  | > 64 | > 64 | > 64 | > 64 | >64 |  |  |  |  |  |  |
| O=C(CCN(CCC(=O)NN=Cc1ccc([N+](=O)[O-])cc1)c1cccc(O)c1)NN=Cc1ccc([N+](=O)[O-])cc1 [Compound 10, 3,3′-((3-Hydroxyphenyl)azanediyl)bis(N′-(4-nitrobenzylidene)propanehydrazide)] |  |  |  |  |  |  |  |  |  |  |  |  |  | 16 (≈ 29.2 µM) | > 64 | > 64 | > 64 | > 64 | 4 (≈ 7.31 µM) |
| COc1cc(C=NNC(=O)CCN(CCC(=O)NN=Cc2cc(OC)c(OC)c(OC)c2)c2cccc(O)c2)cc(OC)c1OC [Compound 13, 3,3′-((3-Hydroxyphenyl)azanediyl)bis(N′-(3,4,5-trimethoxybenzylidene)propanehydrazide)] | >64 | > 64 | >64 | >64 | >64 | > 64 | >64 |  | > 64 | > 64 | > 64 | > 64 | >64 |  |  |  |  |  |  |
| O=C(CCN(CCC(=O)NN=Cc1ccc([N+](=O)[O-])s1)c1cccc(O)c1)NN=Cc1ccc([N+](=O)[O-])s1 [Compound 16, 3,3′-((3-Hydroxyphenyl)azanediyl)bis(N′-((5-nitrothiophen-2-yl)methylene)propanehydrazide)] |  |  |  |  |  |  |  |  |  |  |  |  |  | 4 (≈ 7.15 µM) | 32 (≈ 57.2 µM) | > 64 | > 64 | > 64 | 1 (≈ 1.79 µM) |
| O=C(CCN(CCC(=O)N/N=C/c1ccc([N+](=O)[O-])o1)c1cccc(O)c1)N/N=C/c1ccc([N+](=O)[O-])o1 [Compound 17] | >64 |  |  |  |  |  |  |  |  |  |  |  |  | > 64 | > 64 | > 64 | > 64 | > 64 | 16 (≈ 30.3 µM) |
| Cc1cc(C)n(C(=O)CCN(CCC(=O)n2nc(C)cc2C)c2cccc(O)c2)n1 [Compound 24, 3,3′-((3-Hydroxyphenyl)azanediyl)bis(1-(3,5-dimethyl-1H-pyrazol-1-yl)propan-1-one)] |  | > 64 |  |  |  | > 64 |  | reduced viability | > 64 | > 64 | > 64 | > 64 |  |  |  |  |  |  |  |
